Laboratory results as given in US11459315B2, “Modulators of methyl modifying enzymes, compositions and uses thereof” (Constellation Pharmaceuticals, Inc., priority 2017, dated 2022).
Like-named read-outs stand apart in the source and are kept apart here.

Legend:
PRC2 containing wt EZH2 = PRC2 containing wt EZH2 (Homo sapiens (Human), UniProt Q15910); experiment: EZH2 biochemical assay (IC50), 3H-SAM incorporation into biotinylated H3 peptide
Experimental: EZH2 biochemical assay (IC50): Compound potencies were assessed through incorporation of ^3H-SAM into a biotinylated H3 peptide. Specifically, 30 pM PRC2 containing wt EZH2 (pentameric complex prepared in-house) was pre-incubated with 450 nM SAM, 450 nM ^3H-SAM, 2 μM H3K27me3 activating peptide (H2N-[…](Kme3)[…]-amide) and compounds (as 10 point duplicate dose response titrations in DMSO, final assay 0.8% DMSO (v/v)) for 3-5 h in 50 mM Tris (pH 8.5), 1 mM DTT, 0.07 mM Brij-35, 0.1% BSA, and 0.8% DMSO in a total volume of 12.5 μl. Reaction was initiated with biotinylated H3 substrate peptide (H2N-[…](Kme1)[…]-NTPEGBiot) as a 2 μM stock in 12.5 μl of buffer and allowed to react at room temperature for 18-22 h. Quenching was accomplished by addition of 20 μl of STOP solution (50 mM Tris (pH 8.5), 200 mM EDTA, 2 mM SAH). 35 μl of the quenched solution was transferred to streptavidin coated FlashPlates (PerkinElmer), incubated 1-2 h, washed, and read in a TopCount Reader (PerkinElmer). IC50s were calculated in Genedata Screener using non-linear least square four parameter fits, where the four parameters were IC50, Hill slope, pre-transitional baseline (0% INH), and post-transitional baseline (100% INH).
IC50 values are reported as follows: “A” indicates an IC50 value of less than 0.5 nM; “B” indicates an IC50 value of 0.5 nM to 5 nM; “C” indicates an IC50 value of greater than 5 nM for each enzyme; and “ND” is not determined.

[1] = test system: H3K27me3 mark in HeLa cells (EZH2); experiment: H3K27me3 Alpha Hela Assay (AlphaLISA); assay type: cell-based; conditions: HeLa cells, 72 hrs, read-out: EZH2 Cell H3K27me3 Alpha HeLa (EC50 K27me3)
Experimental: H3K27me3 Alpha Hela Assay (AlphaLISA). Ten different doses of each test compound (in a series of 3-fold dilutions) were plated in duplicate 384-well tissue culture treated plates (Catalog #6007680; Perkin Elmer, Waltham, Mass.). Hela cells grown in culture were trypsinized and counted using a Countess® cell counter (Catalog #C10281; Life Technologies, Grand Island, N.Y.). Cell were diluted to 67,000 cells per mL in 10% DMEM (Catalog #10569-010 Life Technologies, Grand Island, N.Y.) and 15 μL (1,000 cells) were plated into each well using the Biotek MicroFlo™ Select Dispenser (BioTek Instruments, Inc. Vermont, USA),) of the 384-well plate. Plates were incubated at 37° C./5% CO2 for 72 hrs. One of the duplicate plates was processed for HeLa assay and the other for viability.
5 μL of Cell-Histone Lysis buffer (1×) (Catalog #AL009F1 Perkin Elmer; Waltham, Mass.) per well was added to the plate processed for AlphaLISA and the plate was incubated at RT for 30 minutes on a plate shaker with low speed (Model #4625-Q Thermo Scientific; Waltham, Mass.). Then, 10 μL per well Histone Extraction buffer (catalog #AL009F2; Perkin Elmer; Waltham, Mass.) was added and the plate further incubated at RT for 20 min on plate shaker with low speed. Next, 10 μL of 5× mix of anti-K27me3 acceptor beads plus Biotinylated anti-Histone H3 (C-ter) Antibody (diluted to 3 nM final) (Catalog #AL118 Perkin Elmer; Waltham, Mass.) was added in each well. Dilution of the acceptor beads and anti-Histone H3 was done in 1× Histone Detection buffer (Catalog #AL009F3 Perkin Elmer; Waltham, Mass.) which was produced by diluting the 10× stock provided. The plate was sealed with an aluminum plate sealer and incubated at 23° C. for 60 min. Next, 10 μL 5× solution of Streptavidin Donor beads were added (Catalog #6760002 Perkin Elmer; Waltham, Mass.) (20 μg/mL final in 1× Histone Detection Buffer), =plate was sealed with Aluminum plate sealer and incubated at 23° C. for 30 min. The plates were then read using an EnVision-Alpha Reader (model #2104 Perkin Elmer; Waltham, Mass.).
Data from both assays was analyzed using Genedata (Basel, Switzerland). Data files were imported to Genedata and assay conditions were specified. A unique Analysis ID was created and the data files analysed to measure dose-dependent inhibition of H3K27me3 mark and cell viability respectively. Readout of DMSO wells were used to normalize the data. Resulting curves were fitted using Smart fit application (Genedata; Basel, Switzerland). The data was checked for quality, validated and integrated in excel format using Stardrop (Optibruim, Cambridge, UK).
EC50 values are reported as follows: “A” indicates an EC50 value of less than 10 nM; “B” indicates an EC50 value of 10 nM to 100 nM; “C” indicates an EC50 value of greater than 100 nM; and “ND” is not determined.

[2] = EZH2 (IC50), 30 pM PRC2 containing wt EZH2; 3-5 h pre-incubation
[3] = 30 pM PRC2 containing wt EZH2; 3-5 h pre-incubation; read-out: EZH2 (IC50)
[4] = read-out: EZH2 (IC50); 30 pM PRC2 containing wt EZH2; 3-5 h pre-incubation

PRC2 containing wt EZH2, sequence (Q15910 whole entry): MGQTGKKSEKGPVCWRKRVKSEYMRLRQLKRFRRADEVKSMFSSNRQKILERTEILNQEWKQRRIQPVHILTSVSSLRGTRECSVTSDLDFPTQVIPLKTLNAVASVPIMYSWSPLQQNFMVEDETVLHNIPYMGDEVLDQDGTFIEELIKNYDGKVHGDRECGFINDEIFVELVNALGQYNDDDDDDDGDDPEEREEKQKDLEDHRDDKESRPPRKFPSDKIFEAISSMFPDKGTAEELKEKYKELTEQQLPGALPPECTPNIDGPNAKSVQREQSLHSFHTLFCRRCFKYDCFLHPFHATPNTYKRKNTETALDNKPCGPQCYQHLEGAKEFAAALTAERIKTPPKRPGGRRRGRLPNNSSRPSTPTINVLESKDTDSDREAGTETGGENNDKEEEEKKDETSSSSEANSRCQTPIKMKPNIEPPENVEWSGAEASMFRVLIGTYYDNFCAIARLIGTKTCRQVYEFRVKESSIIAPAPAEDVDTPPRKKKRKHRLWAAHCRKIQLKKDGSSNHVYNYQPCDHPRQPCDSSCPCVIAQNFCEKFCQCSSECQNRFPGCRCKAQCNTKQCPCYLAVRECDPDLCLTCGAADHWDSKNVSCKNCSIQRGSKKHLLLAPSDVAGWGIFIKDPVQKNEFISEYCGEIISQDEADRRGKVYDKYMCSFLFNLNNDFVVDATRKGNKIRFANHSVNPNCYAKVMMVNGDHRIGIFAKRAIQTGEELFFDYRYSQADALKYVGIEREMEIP
PRC2 containing wt EZH2, sequence (O75530 whole entry partner): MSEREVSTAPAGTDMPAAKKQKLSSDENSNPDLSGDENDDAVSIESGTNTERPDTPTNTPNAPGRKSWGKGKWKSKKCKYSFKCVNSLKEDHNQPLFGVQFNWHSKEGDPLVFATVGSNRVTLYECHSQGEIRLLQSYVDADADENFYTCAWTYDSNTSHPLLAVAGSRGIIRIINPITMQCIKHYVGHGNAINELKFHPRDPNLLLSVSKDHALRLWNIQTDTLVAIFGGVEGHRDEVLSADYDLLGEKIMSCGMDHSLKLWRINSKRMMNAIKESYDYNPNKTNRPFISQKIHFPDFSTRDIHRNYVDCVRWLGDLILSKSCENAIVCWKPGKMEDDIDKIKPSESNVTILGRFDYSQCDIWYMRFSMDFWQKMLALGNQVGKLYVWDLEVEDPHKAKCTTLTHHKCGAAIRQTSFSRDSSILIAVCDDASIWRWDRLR
PRC2 containing wt EZH2, sequence (Q15022 whole entry partner): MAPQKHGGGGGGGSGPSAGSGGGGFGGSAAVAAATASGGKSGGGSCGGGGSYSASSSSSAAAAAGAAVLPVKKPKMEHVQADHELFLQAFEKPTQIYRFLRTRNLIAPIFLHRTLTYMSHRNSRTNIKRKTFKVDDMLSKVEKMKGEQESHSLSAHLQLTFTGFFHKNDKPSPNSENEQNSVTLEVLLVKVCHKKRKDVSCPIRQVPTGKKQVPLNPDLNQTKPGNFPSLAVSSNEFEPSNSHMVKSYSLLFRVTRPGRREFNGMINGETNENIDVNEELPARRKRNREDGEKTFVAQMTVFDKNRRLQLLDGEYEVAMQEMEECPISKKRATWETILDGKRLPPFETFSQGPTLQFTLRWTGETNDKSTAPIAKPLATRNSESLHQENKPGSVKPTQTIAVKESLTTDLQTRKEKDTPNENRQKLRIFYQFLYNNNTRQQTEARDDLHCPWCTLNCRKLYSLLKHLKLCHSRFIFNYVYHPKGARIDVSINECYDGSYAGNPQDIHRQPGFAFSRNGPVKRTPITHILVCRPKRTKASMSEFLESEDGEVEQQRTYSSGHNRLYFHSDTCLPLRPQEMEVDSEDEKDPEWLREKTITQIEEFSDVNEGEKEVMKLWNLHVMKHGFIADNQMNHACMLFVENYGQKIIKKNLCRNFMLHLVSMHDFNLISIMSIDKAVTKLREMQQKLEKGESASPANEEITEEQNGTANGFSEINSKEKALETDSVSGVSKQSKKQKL
PRC2 containing wt EZH2, sequence (Q09028 whole entry partner): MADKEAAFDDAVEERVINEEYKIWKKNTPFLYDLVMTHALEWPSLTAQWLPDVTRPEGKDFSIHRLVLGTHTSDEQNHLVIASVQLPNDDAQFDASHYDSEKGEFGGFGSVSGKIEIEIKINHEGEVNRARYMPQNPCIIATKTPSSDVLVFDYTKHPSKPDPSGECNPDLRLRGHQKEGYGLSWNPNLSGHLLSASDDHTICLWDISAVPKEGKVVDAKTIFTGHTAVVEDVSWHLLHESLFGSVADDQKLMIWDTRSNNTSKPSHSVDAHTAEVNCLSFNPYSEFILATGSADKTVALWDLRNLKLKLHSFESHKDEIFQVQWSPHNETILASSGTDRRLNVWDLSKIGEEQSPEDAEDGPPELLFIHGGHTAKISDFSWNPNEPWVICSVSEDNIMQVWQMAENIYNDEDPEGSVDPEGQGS
PRC2 containing wt EZH2, sequence (Q6ZN18 whole entry partner): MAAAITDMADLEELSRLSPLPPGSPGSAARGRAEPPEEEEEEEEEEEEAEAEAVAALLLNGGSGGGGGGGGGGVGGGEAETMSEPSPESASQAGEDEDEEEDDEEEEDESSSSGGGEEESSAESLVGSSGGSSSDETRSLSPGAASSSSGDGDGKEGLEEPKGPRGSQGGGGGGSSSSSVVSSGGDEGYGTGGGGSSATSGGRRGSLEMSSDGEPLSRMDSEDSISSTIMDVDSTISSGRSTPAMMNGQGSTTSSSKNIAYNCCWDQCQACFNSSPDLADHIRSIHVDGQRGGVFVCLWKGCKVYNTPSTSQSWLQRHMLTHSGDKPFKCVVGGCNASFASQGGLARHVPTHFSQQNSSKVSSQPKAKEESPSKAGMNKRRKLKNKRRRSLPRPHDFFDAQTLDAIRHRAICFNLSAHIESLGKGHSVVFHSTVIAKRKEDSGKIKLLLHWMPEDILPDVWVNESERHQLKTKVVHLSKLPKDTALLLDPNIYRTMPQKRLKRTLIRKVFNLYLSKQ

SMILES | IC50 (PRC2 containing wt EZH2; [2]) [nM] | EC50 ([1]; Homo sapiens, HeLa, 72 h) [nM] | IC50 (PRC2 containing wt EZH2; [3]) [nM] | EC50 [1] [nM] | IC50 (PRC2 containing wt EZH2; [4]) [nM]
CSc1cc(C)[nH]c(=O)c1CNC(=O)c1c(C)n([C@H](C)C2CCC(C)(O)CC2)c2ccccc12 (single isomer, unassigned) [22 (isomer 1)] | < 0.5 | < 10 |  |  | 
COc1cccc2c1c(C(=O)NCc1c(SC)cc(C)[nH]c1=O)c(C)n2[C@H](C)C1CCN(CC(F)(F)F)CC1 [Example 101, (R)-4-methoxy-2-methyl-N-((6-methyl-4-(methylthio)-2-oxo-1,2-dihydropyridin-3-yl)methyl)-1-(1-(1-(2,2,2-trifluoroethyl)piperidin-4-yl)ethyl)-1H-indole-3-carboxamide] |  | 10 to 100 | 0.5 to 5 |  | 
CSc1cc(C)[nH]c(=O)c1CNC(=O)c1c(C)n([C@H](C)[C@H]2OC[C@@H](N3CCC34COC4)CO2)c2ccccc12 (single isomer, unassigned; isomer 1) [150 (isomer 1)] |  |  | 0.5 to 5 | > 100 | 
CSc1cc(C)[nH]c(=O)c1CNC(=O)c1c(C)n([C@H](C)C2CCC(N3CC[C@H](OC(F)F)C3)CC2)c2ncccc12 (stereo partly drawn) [Example 120, 1-((R)-1-(4-((S)-3-(difluoromethoxy)pyrrolidin-1-yl)cyclohexyl)ethyl)-2-methyl-N-((6-methyl-4-(methylthio)-2-oxo-1,2-dihydropyridin-3-yl)methyl)-1H-pyrrolo[2,3-b]pyridine-3-carboxamide] |  | 10 to 100 | < 0.5 |  | 
CSc1cc(C)[nH]c(=O)c1CNC(=O)c1c(C)n([C@H](C)C2OCC(N3CC(F)(F)C3)CO2)c2ccccc12 (single isomer, unassigned) [85 (isomer 1)] | < 0.5 |  |  | 10 to 100 | 
CSc1cc(C)[nH]c(=O)c1CNC(=O)c1c(C)n([C@H](C)C2CCN(CC(F)(F)F)CC2)c2cccc(C(F)F)c12 [Example 114, (R)-4-(difluoromethyl)-2-methyl-N-((6-methyl-4-(methylthio)-2-oxo-1,2-dihydropyridin-3-yl)methyl)-1-(1-(1-(2,2,2-trifluoroethyl)piperidin-4-yl)ethyl)-1H-indole-3-carboxamide] |  | > 100 | > 5 |  | 
CSc1cc(C)[nH]c(=O)c1CNC(=O)c1c(C)n([C@H](C)C2CCC(O)CC2)c2ncccc12 (single isomer, unassigned) [36 (isomer 2)] |  |  |  | < 10 | < 0.5
CSc1cc(C)[nH]c(=O)c1CNC(=O)c1c(C)n([C@H](C)C2CCC(N3CC(N(C)C)C3)CC2)c2ccccc12 (single isomer, unassigned) [148 (isomer 1)] |  | 10 to 100 | < 0.5 |  | 
COC1CCC([C@@H](C)n2c(C)c(C(=O)NCc3c(SC)cc(C)[nH]c3=O)c3ccccc32)CC1 (single isomer, unassigned) [18 (isomer 2)] |  |  |  | < 10 | < 0.5
CSc1cc(C)[nH]c(=O)c1CNC(=O)c1c(C)n([C@H](C)C2OCC(N(C)C)CO2)c2ccccc12 (single isomer, unassigned) [7 (isomer 2)] |  |  | < 0.5 | < 10 | 
CSc1cc(C)[nH]c(=O)c1CNC(=O)c1c(C)n([C@H](C)C2CCN(C3CC(F)C3)CC2)c2ncccc12 (stereo partly drawn) [Example 66, (R)-1-(1-(1-(3-fluorocyclobutyl)piperidin-4-yl)ethyl)-2-methyl-N-((6-methyl-4-(methylthio)-2-oxo-1,2-dihydropyridin-3-yl)methyl)-1H-pyrrolo[2,3-b]pyridine-3-carboxamide] | < 0.5 | 10 to 100 |  |  | 
COC1CN(C2CCC([C@@H](C)n3c(C)c(C(=O)NCc4c(SC)cc(C)[nH]c4=O)c4cncnc43)CC2)C1 (stereo partly drawn) [Example 77, 7-((R)-1-(4-(3-methoxyazetidin-1-yl)cyclohexyl)ethyl)-6-methyl-N-((6-methyl-4-(methylthio)-2-oxo-1,2-dihydropyridin-3-yl)methyl)-7H-pyrrolo[2,3-d]pyrimidine-5-carboxamide] | < 0.5 | 10 to 100 |  |  | 
CSc1cc(C)[nH]c(=O)c1CNC(=O)c1c(C)n([C@H](C)C2CCC(OC(F)F)CC2)c2ccccc12 (single isomer, unassigned) [60 (isomer 2)] |  |  |  | < 10 | < 0.5
